Values quoted from earlier work in US20090215676A1, “Method of treatment” (priority 2005, published 2009).
Where two headings read alike, the source gives them in different places.

Experiments:
[1] = test system: GH and IGF-1 levels; conditions: for acromegalic patients in whom GH and IGF-1 levels are reduced: human, in vivo; for share of responding patients whose GH and IGF-1 levels are reduced to normal levels (full responders): of the approximately 90% who respond
[2] = test system: tumor size
[3] = test system: IGF-I; conditions: once weekly pegvisomant dose of 80 mg, monotherapy
[4] = test system: insulin sensitivity; conditions: in vivo
[5] = test system: IGF-I; conditions: alternate day administration, monotherapy; of 10 patients
[6] = test system: IGF-I levels; conditions: for daily pegvisomant dose needed: former pegvisomant registration studies

| Compound | acromegalic patients in whom GH and IGF-1 levels are reduced [1] | share of responding patients whose GH and IGF-1 levels are reduced to normal levels (full responders) [1] | effect on tumor growth ([2]; clinical experience) | effect on mean tumor size ([2]; follow-up with pegvisomant monotherapy to date) | share of patients with IGF-I normalized [3] | effect on insulin sensitivity [4] | patients in whom the regimen failed to maintain IGF-I within the age-adjusted normal range [5] | daily pegvisomant dose needed ([6]; one subject) | daily dose needed by the average patient ([6]; pegvisomant monotherapy) | acromegalics with IGF-I levels normalized ([6]; pegvisomant monotherapy, listed as PEGVISOMANT) | acromegalics with IGF-I levels normalized ([6]; pegvisomant monotherapy, listed as Pegvisomant) | daily pegvisomant dose needed ([6]; two subjects) |
| --- | --- | --- | --- | --- | --- | --- | --- | --- | --- | --- | --- | --- |
| CC(C)[C@@H]1NC(=O)[C@H](CCCCN)NC(=O)[C@@H](Cc2c[nH]c3ccccc23)NC(=O)[C@H](Cc2ccc(O)cc2)NC(=O)[C@@H](NC(=O)[C@H](N)Cc2ccc3ccccc3c2)CSSC[C@@H](C(=O)N[C@H](C(N)=O)[C@@H](C)O)NC1=O [LANREOTIDE] | approximately 90% | one-half to two-thirds | – | – | – | – | – | – | – | – | – | – |
| C[C@@H](O)[C@@H]1NC(=O)[C@H](CCCCN)NC(=O)[C@@H](Cc2c[nH]c3ccccc23)NC(=O)[C@H](Cc2ccccc2)NC(=O)[C@@H](NC(=O)[C@H](N)Cc2ccccc2)CSSC[C@@H](C(=O)N[C@H](CO)[C@@H](C)O)NC1=O [OCTREOTIDE] | approximately 90% | one-half to two-thirds | – | – | – | – | – | – | – | – | – | – |
| pegvisomant | – | – | does not prevent tumor growth in some patients | do not indicate that pegvisomant increases mean tumor size | less than one-third | improves insulin sensitivity as compared to somatostatin analogues | 7 patients | 35 mg | approximately 20 mg | 75%-95% | > 90% | 40 mg |
